Measured values from article PMC6731595, “The anti-parasitic agent suramin and several of its analogues are inhibitors of the DNA binding protein Mcm10” (Open Biology, 2019).
Entries after “also recorded” stand apart in the source; their conditions may differ. Where a name gives a salt, the structure may show the parent alone. Read-outs that look alike come from different tables or passages of the source.

Legend:
hMcm10-ID = target: T1, hMcm10-ID (Homo sapiens, UniProt Q7L590); test: Surface plasmon resonance binding kinetics on immobilized hMcm10-ID (Biacore S200); settings: for surface plasmon resonance hMcm10-ID kd / kon: 25°C; for kon: read-out: surface plasmon resonance hMcm10-ID ka; for SPR binding kinetics (description of sensorgrams): immobilized hMcm10-ID
T1 construct: hMcm10-ID (residues 237 to 436) were expressed in E. coli strain BL21(DE3); 6xHis (HRV 3C site) (N, cleaved yes); made in house; host or cells: E. coli BL21(DE3)
T1 sequence (Q7L590 237-436): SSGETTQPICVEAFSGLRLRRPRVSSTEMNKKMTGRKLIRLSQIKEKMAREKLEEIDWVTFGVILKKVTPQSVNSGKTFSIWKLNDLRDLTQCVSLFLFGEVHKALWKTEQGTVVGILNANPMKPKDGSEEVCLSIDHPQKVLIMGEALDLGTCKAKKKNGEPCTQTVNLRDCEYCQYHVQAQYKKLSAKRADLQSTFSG
Description: SPR experiments were performed using a Biacore S200 (GE Healthcare) equipped with a research-grade CM5 sensor chip. hMcm10-ID, at a concentration of 15 µg ml^−1 in 10 mM sodium acetate, pH 4.5, […], using an amine coupling kit (GE Healthcare) to either flow cell 2 or 4 following manufacturer directions. The reference flow cell (either flow cell 1 or 3) was left untreated. All compounds were dissolved in running buffer (10 mM PBS, 150 mM NaCl, 0.005% P20, pH 7.4) prior to injection over the chip surface at a flow rate of 30 µl min^−1 and at a temperature of 25°C. Zero concentration samples were injected for double referencing. Data were collected at a rate of 40 Hz and were fitted to a simple 1 : 1 interaction model (unless otherwise noted) using the global data analysis within the Biacore S200 evaluation software.

HCT116 cells = test: CellTiter-Glo cell viability assay, HCT116; format: cell-based, human; settings: for IC50: Homo sapiens, HCT-116, 96 h, 4 days, intracellular ATP, mean ± s.e.m., n = 3
Description: Cells were cultured at 37°C and 5% CO2. […] Cells were allowed to grow for 4 days in inhibitor containing medium and cell viability was measured with the CellTiter-Glo Luminescent Cell Viability Assay (Promega G7572) following the manufacturer's instructions. Viability of each drug treatment condition was normalized to the untreated control for each cell line and fitted to the sigmoidal dose–response variable slope four parameter equation in GraphPad Prism 6.0.

[1] = test system: DNA replication of sperm chromatin in Xenopus egg extracts; test: In vitro DNA replication assay in Xenopus S-phase egg extracts ([α-32P]dGTP incorporation); format: biochemical; settings: 10, 50, 150 and 300 µM
Description: Xenopus egg extracts were prepared according to the method of Murray. Replication of sperm chromatin in S-phase egg extracts was monitored as previously described. Compounds identified by HTS were added to replication reactions immediately prior to addition of [α-^32P]dGTP (Perkin Elmer BLU514H250UC).
To determine whether the four remaining confirmed HTS hits affected DNA replication, in vitro replication assays were performed using Xenopus S-phase egg extracts incubated with sperm chromatin [25, 34]. DNA replication was measured in the presence of bronopol, fumarprotocetraric acid, iriginol and suramin or DMSO by the incorporation of [α-^32P]dGTP. […] For this reason, further studies focused on suramin alone.
Figure 1. Suramin inhibits DNA replication in an in vitro Xenopus replication assay. HTS hits were evaluated for inhibition of [α-^32P]dGTP incorporation into DNA using a cell-free extract prepared from Xenopus eggs at increasing concentrations (10, 50, 150 and 300 µM indicated by black triangle from right to left). No chemical (–) and DMSO were used as negative controls for replication inhibition (far left and far right lanes).

[2] = calculated from association and dissociation rate constants, 1:1 model, 6000–8000 RU, read-out: surface plasmon resonance hMcm10-ID kinetic KD

Structure (SMILES)	surface plasmon resonance hMcm10-ID kd (hMcm10-ID; 1:1 model, 6000–8000 RU)	kon (hMcm10-ID; 1:1 model, 6000–8000 RU)	Kd (hMcm10-ID; [2])	SPR binding kinetics (description of sensorgrams) (hMcm10-ID)	higher cytotoxicity for HCT116 cancer cells in comparison to hTERT RPE-1 cells (HCT116 cells)	selectivity = hTERT RPE-1 IC50/HCT116 IC50 (HCT116 cells)	IC50 (HCT116 cells)	Kd (hMcm10-ID; 3000 RU of hMcm10-ID immobilized, read-out: SPR kinetic KD at lower surface density)	DNA replication, [α-32P]dGTP incorporation (result in words) [1]
O=C(Nc1cccc(C(=O)Nc2ccc(S(=O)(=O)O)c3cc(S(=O)(=O)O)cc(S(=O)(=O)O)c23)c1)Nc1cccc(C(=O)Nc2ccc(S(=O)(=O)O)c3cc(S(=O)(=O)O)cc(S(=O)(=O)O)c23)c1 [NF023]	1.6 ± 0.2 s^−1	360000 ± 2e+09 M⁻¹ s⁻¹	4.7 ± 0.8 µM	rapid association and dissociation					
O=C(Nc1cccc(C(=O)Nc2cc(C(=O)Nc3ccc(S(=O)(=O)O)c4cc(S(=O)(=O)O)cc(S(=O)(=O)O)c34)ccc2F)c1)Nc1cccc(C(=O)Nc2cc(C(=O)Nc3ccc(S(=O)(=O)O)c4cc(S(=O)(=O)O)cc(S(=O)(=O)O)c34)ccc2F)c1 [NF157]	0.0032 ± 0.0001 s^−1	7400 ± 600000 M⁻¹ s⁻¹	0.46 ± 0.05 µM	predominantly rapid kinetics	approximately 3.5 fold	3.2	38 ± 1 µM		
Cc1nc(/N=N/c2ccc(S(=O)(=O)O)cc2S(=O)(=O)O)c(COP(=O)(O)O)c(C=O)c1O [PPADS, pyridoxalphosphate-6-azophenyl-2’, 4’-disulfonic acid tetrasodium salt]	0.0013 ± 0.0001 s^−1	29 ± 8 M⁻¹ s⁻¹	57 ± 9 µM	slow association and dissociation kinetics; also recorded: slow on and off rates	little cell type specificity	1.3	310 ± 20 µM		
Cc1nc(/N=N/c2cc(S(=O)(=O)O)ccc2S(=O)(=O)O)c(COP(=O)(O)O)c(C=O)c1O [iso-PPADS, pyridoxalphosphate-6-azophenyl-2’, 5’-disulfonic acid tetrasodium salt]	0.0015 ± 0.0001 s^−1	47 ± 8 M⁻¹ s⁻¹	40 ± 9 µM	slow on- and off-rates	little cell type specificity	1.5	370 ± 30 µM		
Cc1ccc(C(=O)Nc2ccc(S(=O)(=O)O)c3cc(S(=O)(=O)O)cc(S(=O)(=O)O)c23)cc1NC(=O)c1cccc(NC(=O)Nc2cccc(C(=O)Nc3cc(C(=O)Nc4ccc(S(=O)(=O)O)c5cc(S(=O)(=O)O)cc(S(=O)(=O)O)c45)ccc3C)c2)c1 [suramin, suramin sodium salt]	0.16 ± 0.03 s^−1	290000 ± 7e+09 M⁻¹ s⁻¹	0.57 ± 0.06 µM	predominantly rapid kinetics	approximately 3.5 fold	3.7	109 ± 10 µM	0.65 µM	dose-dependent decrease in replication products; also recorded: dose-dependent decrease in DNA replication
